# From US20260022142A1, “MACROCYCLIC IMMUNOMODULATORS” (Bristol-Myers Squibb Company, priority 2022, published 2026)
# Numbered stars: 1 amine (or outer) side, 2 acyl side, 3 side chain; on linkers, the order of the positions; unused ones are H or OH. Bridge positions count the residues as written; N and C are the ends. Square brackets hold non-standard residues; d marks the D form. Peptide text beside a SMILES is read from it. * marks the point of attachment. ξ: configuration not given here. Phe(3-CF3) = N[C@@H](Cc1cccc(C(F)(F)F)c1)C(=O)O; Ala(morpholin-4-yl) = N[C@@H](CN1CCOCC1)C(=O)O; Phe(4-CONH2) = NC(=O)c1ccc(C[C@H](N)C(=O)O)cc1; Phe(4-COOH) = N[C@@H](Cc1ccc(C(=O)O)cc1)C(=O)O; Bip = N[C@@H](Cc1ccc(-c2ccccc2)cc1)C(=O)O; X18 = O=C(C(CC1CCC(F)(F)CC1)N[*:1])[*:2]; Nle(6-COOH) = N[C@@H](CCCCC(=O)O)C(=O)O; Phe(3-Me) = Cc1cccc(C[C@H](N)C(=O)O)c1; γGlu = O=C(O)[C@H](CCC(=O)[*:2])N[*:1]; NH(CH2)12COOH = O=C(O)CCCCCCCCCCCCN*; Val(3-OH) = CC(C)(O)[C@H](N)C(=O)O; 4Pal = N[C@@H](Cc1ccncc1)C(=O)O; Cha = N[C@@H](CC1CCCCC1)C(=O)O; Cit = NC(=O)NCCC[C@H](N)C(=O)O; Thr(3ξ) = CC(O)[C@H](N)C(=O)O; Ahp(2) = CCCCC[C@H](N)C(=O)O; PEG4 = NCCOCCOCCOCCOCCC(=O)O; hSer = N[C@@H](CCO)C(=O)O; Carboxymethyl = O=C(O)C*; Orn = NCCC[C@H](N)C(=O)O; Pra = C#CC[C@H](N)C(=O)O; Aun = NCCCCCCCCCCC(=O)O; Dab = NCC[C@H](N)C(=O)O; Nva = CCC[C@H](N)C(=O)O; Dap = NC[C@H](N)C(=O)O; AEEA = NCCOCCOCC(=O)O
# Target: T1, PD-1/PD-L1 interaction (PE-labeled human PD-L1-Ig binding to Jurkat cell line over-expressing human PD-1) (Homo sapiens, UniProt Q15116)
# T1 construct: expressed in transfected cells; host or cells: Jurkat
# Test: Jurkat-PD-1 Cell Binding High-Content Screening Assay (CBA)
# Format: cell-based
# Settings: Jurkat cell line over-expressing human PD-1; PE-labeled PD-L1-Ig 20 nM final; read-out: Jurkat hPD1-PDL1 IC50
# Outline: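 Jurkat cells stably over-expressing human PD-1 were seeded in DMEM with 10% fetal calf serum and pre-incubated with compound for 2 h at 37° C. PE-labeled human PD-L1-Ig was then added at 20 nM final for 1 hour, after which cells were fixed with paraformaldehyde, Hoechst-stained and imaged by high-content microscopy.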
# T1 sequence (Q15116 25-288): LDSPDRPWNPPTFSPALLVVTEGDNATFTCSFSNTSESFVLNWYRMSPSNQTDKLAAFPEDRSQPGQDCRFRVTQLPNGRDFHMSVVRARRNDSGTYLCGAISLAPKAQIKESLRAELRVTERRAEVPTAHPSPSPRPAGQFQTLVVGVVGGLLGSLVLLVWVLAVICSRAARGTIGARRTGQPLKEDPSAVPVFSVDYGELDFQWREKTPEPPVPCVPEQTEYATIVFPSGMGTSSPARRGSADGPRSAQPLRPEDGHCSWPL
row,IC50 [µM],SMILES
1,0.0075,Cc1cccc(C[C@@H]2NC(=O)[C@H](CC(=O)O)NC(=O)[C@H](Cc3ccc(OCC(=O)O)cc3)NC(=O)[C@H](C(C)O)NC(=O)CSC[C@@H](C(=O)N[C@@H](CCN)C(=O)NCCCCCCCCCCC(=O)O)NC(=O)[C@H](CCO)NC(=O)[C@H](C(C)C)NC(=O)[C@H](CC3CCCCC3)NC(=O)[C@H](CCN)NC(=O)[C@@H](CC(C)C)NC(=O)[C@H](CCCN)NC(=O)[C@H](Cc3ccc(OCC(=O)O)cc3)NC(=O)[C@H](Cc3ccc(-c4ccccc4)cc3)NC(=O)[C@H](Cc3ccc(OCC(=O)O)cc3)NC2=O)c1 (stereo partly drawn) [Compound 3482] ({CH2CO}-[Thr(3ξ)]Y(Carboxymethyl)D[Phe(3-Me)]Y(Carboxymethyl)[Bip]Y(Carboxymethyl)[Orn][dL][Dab][Cha]V[hSer]C[Dab][Aun]-OH; thioether N-14)
2,0.0322,Cc1cccc(C[C@@H]2NC(=O)[C@H](CC(=O)O)NC(=O)[C@H](Cc3ccc(OCC(=O)O)cc3)NC(=O)[C@H]([C@@H](C)O)NC(=O)CSC[C@@H](C(=O)N[C@@H](CCCCN)C(=O)NCCCCCCCCCCC(=O)O)NC(=O)[C@H]([C@@H](C)O)NC(=O)[C@H](C(C)C)NC(=O)[C@H](CC3CCCCC3)NC(=O)[C@H](CCN)NC(=O)[C@@H](CC(C)C)NC(=O)[C@H](CCCN)NC(=O)[C@H](Cc3ccc(OCC(=O)O)cc3)NC(=O)[C@H](Cc3ccc(-c4ccccc4)cc3)NC(=O)[C@H](Cc3ccc(C(=O)O)cc3)NC2=O)c1 [Compound 1303] ({CH2CO}-TY(Carboxymethyl)D[Phe(3-Me)][Phe(4-COOH)][Bip]Y(Carboxymethyl)[Orn][dL][Dab][Cha]VTCK[Aun]-OH; thioether N-14)
3,0.0041,Cc1cccc(C[C@@H]2NC(=O)[C@H](CC(=O)O)NC(=O)[C@H](Cc3ccc(OCC(=O)O)cc3)NC(=O)[C@H](CN3CCOCC3)NC(=O)CSC[C@@H](C(=O)N[C@@H](CCN)C(=O)NCCOCCOCC(=O)NCCOCCOCC(=O)NCCCCCCCCCCCCC(=O)O)NC(=O)[C@H](CO)NC(=O)[C@H](C(C)(C)O)NC(=O)[C@H](CC3CCCCC3)NC(=O)[C@H](CCN)NC(=O)[C@@H](CC(C)C)NC(=O)[C@H](CCCN)NC(=O)[C@H](Cc3ccc(OCC(=O)O)cc3)NC(=O)[C@H](Cc3ccc(-c4ccccc4)cc3)NC(=O)[C@H](Cc3ccc(OCC(=O)O)cc3)NC2=O)c1 [Compound 2896] ({CH2CO}-[Ala(morpholin-4-yl)]Y(Carboxymethyl)D[Phe(3-Me)]Y(Carboxymethyl)[Bip]Y(Carboxymethyl)[Orn][dL][Dab][Cha][Val(3-OH)]SC[Dab][AEEA][AEEA]-{NH(CH2)12COOH}; thioether N-14)
4,0.0092,Cc1cccc(C[C@@H]2NC(=O)[C@H](CC(=O)O)NC(=O)[C@H](Cc3ccc(OCC(=O)O)cc3)NC(=O)[C@H](Cc3ccc(C(N)=O)cc3)NC(=O)CSC[C@@H](C(=O)N[C@@H](CCN)C(=O)NCCCCCCCCCCC(=O)O)NC(=O)[C@H](CCC(N)=O)NC(=O)[C@H](C(C)(C)O)NC(=O)[C@H](CC3CCCCC3)NC(=O)[C@H](CCN)NC(=O)[C@@H](CC(C)C)NC(=O)[C@H](CCCN)NC(=O)[C@H](Cc3ccc(OCC(=O)O)cc3)NC(=O)[C@H](Cc3ccc(-c4ccccc4)cc3)NC(=O)[C@H](Cc3ccc(OCC(=O)O)cc3)NC2=O)c1 [Compound 2154] ({CH2CO}-[Phe(4-CONH2)]Y(Carboxymethyl)D[Phe(3-Me)]Y(Carboxymethyl)[Bip]Y(Carboxymethyl)[Orn][dL][Dab][Cha][Val(3-OH)]QC[Dab][Aun]-OH; thioether N-14)
5,0.0489,Cc1cccc(C[C@@H]2NC(=O)[C@H](CC(=O)O)NC(=O)[C@H](Cc3ccc(OCC(=O)O)cc3)NC(=O)C(CC3CCC(F)(F)CC3)NC(=O)CSC[C@@H](C(=O)N[C@@H](CCN)C(=O)NCCCCCCCCCCCCC(=O)O)NC(=O)[C@H](CO)NC(=O)[C@H](C(C)(C)O)NC(=O)[C@H](CC3CCCCC3)NC(=O)[C@H](CCN)NC(=O)[C@@H](CC(C)C)NC(=O)[C@H](CCCN)NC(=O)[C@H](Cc3ccc(OCC(=O)O)cc3)NC(=O)[C@H](Cc3ccc(-c4ccccc4)cc3)NC(=O)[C@H](Cc3ccc(OCC(=O)O)cc3)NC2=O)c1 (stereo partly drawn) [Compound 2258] ({CH2CO}-[X18]Y(Carboxymethyl)D[Phe(3-Me)]Y(Carboxymethyl)[Bip]Y(Carboxymethyl)[Orn][dL][Dab][Cha][Val(3-OH)]SC[Dab]-{NH(CH2)12COOH}; thioether N-14)
6,0.0475,CCCCC[C@@H]1NC(=O)[C@H](CCN)NC(=O)[C@@H](CC(C)C)NC(=O)[C@H](CCCN)NC(=O)[C@H](Cc2ccc(OCC(=O)O)cc2)NC(=O)[C@H](Cc2ccc(-c3ccccc3)cc2)NC(=O)[C@H](Cc2ccc(C(=O)O)cc2)NC(=O)[C@H](Cc2cccc(C)c2)NC(=O)[C@H](CC(=O)O)NC(=O)[C@H](Cc2ccc(OCC(=O)O)cc2)NC(=O)[C@H](CN)NC(=O)CSC[C@@H](C(=O)N[C@@H](CCN)C(=O)NCCOCCOCC(=O)NCCCCCCCCCCC(=O)O)NC(=O)[C@H](CCC(=O)O)NC(=O)[C@H](C(C)C)NC1=O [Compound 1275] ({CH2CO}-[Dap]Y(Carboxymethyl)D[Phe(3-Me)][Phe(4-COOH)][Bip]Y(Carboxymethyl)[Orn][dL][Dab][Ahp(2)]VEC[Dab][AEEA][Aun]-OH; thioether N-14)
7,0.0524,CCC[C@@H]1NC(=O)CSC[C@@H](C(=O)N[C@@H](CCN)C(=O)NCCOCCOCCOCCOCCC(=O)NCCCCCCCCCCCCC(=O)O)NC(=O)[C@H](Cc2c[nH]cn2)NC(=O)[C@H](C(C)(C)O)NC(=O)[C@H](CC2CCCCC2)NC(=O)[C@H](CCN)NC(=O)[C@@H](CC(C)C)NC(=O)[C@H](CCCN)NC(=O)[C@H](Cc2ccc(C(=O)O)cc2)NC(=O)[C@H](Cc2ccc(-c3ccccc3)cc2)NC(=O)[C@H](Cc2ccc(C(=O)O)cc2)NC(=O)[C@H](Cc2cccc(C(F)(F)F)c2)NC(=O)[C@H](CC(=O)O)NC(=O)[C@H](Cc2ccc(OCC(=O)O)cc2)NC1=O [Compound 2950] ({CH2CO}-[Nva]Y(Carboxymethyl)D[Phe(3-CF3)][Phe(4-COOH)][Bip][Phe(4-COOH)][Orn][dL][Dab][Cha][Val(3-OH)]HC[Dab][PEG4]-{NH(CH2)12COOH}; thioether N-14)
8,0.0253,CC(C)C[C@H]1NC(=O)[C@H](CCCN)NC(=O)[C@H](Cc2ccc(C(=O)O)cc2)NC(=O)[C@H](Cc2ccc(-c3ccccc3)cc2)NC(=O)[C@H](Cc2ccc(C(=O)O)cc2)NC(=O)[C@H](Cc2cccc(C(F)(F)F)c2)NC(=O)[C@H](CC(=O)O)NC(=O)[C@H](Cc2ccc(OCC(=O)O)cc2)NC(=O)[C@H](CN2CCOCC2)NC(=O)CSC[C@@H](C(=O)N[C@@H](CCN)C(=O)NCCOCCOCCOCCOCCC(=O)NCCCCCCCCCCCCC(=O)O)NC(=O)[C@H](CO)NC(=O)[C@H](C(C)(C)O)NC(=O)[C@H](CC2CCCCC2)NC(=O)[C@H](CCN)NC1=O [Compound 2916] ({CH2CO}-[Ala(morpholin-4-yl)]Y(Carboxymethyl)D[Phe(3-CF3)][Phe(4-COOH)][Bip][Phe(4-COOH)][Orn][dL][Dab][Cha][Val(3-OH)]SC[Dab][PEG4]-{NH(CH2)12COOH}; thioether N-14)
9,0.0156,C#CC[C@H](NC(=O)COCCOCCNC(=O)[C@@H]1CSCC(=O)N[C@@H](Cc2ccncc2)C(=O)N[C@@H](Cc2ccc(OCC(=O)O)cc2)C(=O)N[C@@H](CC(=O)O)C(=O)N[C@@H](Cc2c[nH]c3ccccc23)C(=O)N[C@@H](C(C)C)C(=O)N[C@@H](Cc2ccc(-c3ccccc3)cc2)C(=O)N[C@@H]([C@@H](C)CC)C(=O)N[C@@H](CCCN)C(=O)N[C@H](CC(C)C)C(=O)N[C@@H](CCN)C(=O)N[C@@H](CC(C)C)C(=O)N[C@@H](C(C)C)C(=O)N[C@@H]([C@@H](C)O)C(=O)N1)C(=O)N[C@@H](CN)C(=O)NCCCCCCCCCCC(=O)O [Compound 1211] ({CH2CO}-[4Pal]Y(Carboxymethyl)DWV[Bip]I[Orn][dL][Dab]LVTC[AEEA][Pra][Dap][Aun]-OH; thioether N-14)
10,0.009,Cc1cccc(C[C@@H]2NC(=O)[C@H](CC(=O)O)NC(=O)[C@H](Cc3ccc(OCC(=O)O)cc3)NC(=O)[C@H](CCCNC(=N)N)NC(=O)CSC[C@@H](C(=O)N[C@@H](CCN)C(=O)NCCCCCCCCCCC(=O)O)NC(=O)[C@H](CCCNC(N)=O)NC(=O)[C@H](C(C)C)NC(=O)[C@H](CC3CCCCC3)NC(=O)[C@H](CCN)NC(=O)[C@@H](CC(C)C)NC(=O)[C@H](CCCN)NC(=O)[C@H](CCCCC(=O)O)NC(=O)[C@H](Cc3ccc(-c4ccccc4)cc3)NC(=O)[C@H](C(C)C)NC2=O)c1 [Compound 3390] ({CH2CO}-RY(Carboxymethyl)D[Phe(3-Me)]V[Bip][Nle(6-COOH)][Orn][dL][Dab][Cha]V[Cit]C[Dab][Aun]-OH; thioether N-14)
11,0.02,Cc1cccc(C[C@@H]2NC(=O)[C@H](CC(=O)O)NC(=O)[C@H](Cc3ccc(OCC(=O)O)cc3)NC(=O)[C@H](CCCNC(=N)N)NC(=O)CSC[C@@H](C(=O)N[C@@H](CCCN)C(=O)NCCCCCCCCCCC(=O)O)NC(=O)[C@@H](CCC(N)=O)NC(=O)[C@H](C(C)C)NC(=O)[C@H](CC3CCCCC3)NC(=O)[C@H](CCN)NC(=O)[C@@H](CC(C)C)NC(=O)[C@H](CCN)NC(=O)[C@H](CCCNC(N)=O)NC(=O)[C@H](Cc3ccc(-c4ccccc4)cc3)NC(=O)[C@H](C(C)C)NC2=O)c1 [Compound 2799] ({CH2CO}-RY(Carboxymethyl)D[Phe(3-Me)]V[Bip][Cit][Dab][dL][Dab][Cha]V[dQ]C[Orn][Aun]-OH; thioether N-14)
12,0.0175,CC(C)C[C@H]1NC(=O)[C@H](CCCN)NC(=O)[C@H](C(C)C)NC(=O)[C@H](Cc2ccc(-c3ccccc3)cc2)NC(=O)[C@H](C(C)C)NC(=O)[C@H](Cc2c[nH]c3ccccc23)NC(=O)[C@H](CC(=O)O)NC(=O)[C@H](Cc2ccc(OCC(=O)O)cc2)NC(=O)[C@H](CN)NC(=O)CSC[C@@H](C(=O)N[C@@H](CCN)C(=O)NCCOCCOCC(=O)N[C@@H](CCC(=O)NCCCCCCCCCCC(=O)O)C(=O)O)NC(=O)[C@H](CCCCN)NC(=O)[C@H](C(C)O)NC(=O)[C@H](CC2CCCCC2)NC(=O)[C@H](CCN)NC1=O (stereo partly drawn) [Compound 3650] ({CH2CO}-[Dap]Y(Carboxymethyl)DWV[Bip]V[Orn][dL][Dab][Cha][Thr(3ξ)]KC[Dab][AEEA][γGlu][Aun]-OH; thioether N-14)
